From US20250241840A1, “ORALLY ADMINISTRATED COSMETIC COMPOSITIONS TO TREAT SKIN DRYNESS” (IIAA Limited, priority 2022, published 2025)

Columns and labels:
[1] = tested on: human subjects with dry skin and mild to moderate atopic dermatitis; conditions: 200 mg/day GLA orally; measurements at weeks 0, 4, 8, 12 and 16; cited from earlier work
skin of the cheek = assay: Example 1: 28-day oral hyaluronic acid study, hydration, TEWL and wrinkle depth of the skin of the cheek; assay type: in vivo, human; conditions: 200 mg HA orally once daily, 28 days
Experimental: A cachet containing 200 mg hyaluronic acid (HA) was administered orally, once daily, to 30 subjects for 28 days. The hyaluronic acid administered in this manner consisted of hyaluronic acid molecules having molecular weights in a range of from 50 to 2200 kDa. The hydration, TEWL and wrinkle depth of the skin of the cheek of each subject was measured on the first day of the 28-day study and on the last day of the 28-day study. A Courage+Khazaka Dual 580 Multi Probe Adapter System fitted with a Corneometer™ CM 825 probe (obtainable from Courage & Khazaka Electronic GmbH of Mathias-Brüggen-Straße 91, 50829 Köln, Germany) was used to measure the surface hydration of the subjects' skin. A Courage+Khazaka Dual 580 Multi Probe Adapter System fitted with a Tewameter™ 300 probe was used to measure the TEWL of the subjects' skin. A PRIMOS 3D™ optical skin measurement device was used to measure the depth and width of wrinkles in the subjects' skin. The average percentage change in each of the parameters measured from the first day of the 28-day study to the last day of the 28-day study was calculated.

Q: Which “Effect on TEWL” value [1] does the source give for `CCCCC/C=C\C/C=C\C/C=C\CCCCC(=O)O` [GLA, all-cis-6,9,12-octadecatrienoic acid] here?
A: Its value is “reduce TEWL”.

Q: Which “Skin surface hydration, average percentage change over the course of the 28-day study” value (skin of the cheek; Corneometer CM 825) does the source give for hyaluronic acid here?
A: The value was “+10.6%”.

Q: What about the “Skin surface hydration, average percentage change over the course of the 28-day study” value (skin of the cheek; Corneometer CM 825, listed as HA) of the same compound?
A: The value was “+10.6%”.

Q: And the “Wrinkle depth, average percentage change over the course of the 28-day study” value (skin of the cheek; PRIMOS 3D)?
A: Its value is −18.8%.

Q: And the “TEWL, average percentage change over the course of the 28-day study” value (skin of the cheek; Tewameter 300)?
A: Its value is −3.9%.
